According to ChEMBL document CHEMBL6092137, “Synergistic immune augmentation enabled by covalently conjugating TLR4 and NOD2 agonists” (Eur J Med Chem, 2024):
Calls of active or inactive are those of the source. The rule behind the calls is not given here.

How the values were obtained:
THP-1 = test: Cytotoxicity against human THP-1 cells assessed as reduction in cell viability by MTT assay; assay type: toxicity, cell-based
[1] = Induction of mouse BMDC cell maturation assessed as change in CD86 positive cells incubated for 18 hrs in the presence of muramyl dipeptide by staining based flow cytometric analysis relative to control; assay type: functional
[2] = Induction of mouse RAW264.7 cell maturation assessed as fold increase in CD80 positive cells incubated for 18 hrs in the presence of muramyl dipeptide by staining based flow cytometric analysis relative to muramyl dipeptide; assay type: functional
[3] = Induction of mouse RAW264.7 cell maturation assessed as change in CD80 positive cells incubated for 18 hrs by staining based flow cytometric analysis relative to control; assay type: functional
[4] = Induction of mouse BMDC cell maturation assessed as change in CD80 positive cells incubated for 18 hrs in the presence of muramyl dipeptide by staining based flow cytometric analysis relative to control; assay type: functional
[5] = Induction of mouse BMDC cell maturation assessed as change in CD86 positive cells incubated for 18 hrs by staining based flow cytometric analysis relative to control; assay type: functional
BMDC [6] = test: Immunostimulatory activity in C57BL/6 mouse BMDC cells assessed as increase in IL-6 level at 9.3 uM incubated for 20 hrs in presence of TAK242 inhibitor by ELISA; assay type: functional, cell-based
[7] = Induction of mouse BMDC cell maturation assessed as change in CD80 positive cells incubated for 18 hrs by staining based flow cytometric analysis relative to control; assay type: functional
[8] = Induction of mouse RAW264.7 cell maturation assessed as fold increase in CD80 positive cells incubated for 18 hrs in the presence of muramyl dipeptide by staining based flow cytometric analysis relative to RC529-NH2; assay type: functional
[9] = Induction of mouse RAW264.7 cell maturation assessed as change in CD86 positive cells incubated for 18 hrs in the presence of muramyl dipeptide by staining based flow cytometric analysis relative to control; assay type: functional
[10] = Induction of mouse RAW264.7 cell maturation assessed as change in CD80 positive cells incubated for 18 hrs in the presence of muramyl dipeptide by staining based flow cytometric analysis relative to control; assay type: functional
[11] = Induction of mouse RAW264.7 cell maturation assessed as change in CD86 positive cells incubated for 18 hrs by staining based flow cytometric analysis relative to control; assay type: functional
[12] = Induction of mouse RAW264.7 cell maturation assessed as fold increase in CD80 positive cells incubated for 18 hrs in the presence of muramyl dipeptide by staining based flow cytometric analysis relative to RC529; assay type: functional
Mus musculus [13] = test: Induction of innate immunity in BALB/c mouse assessed as fold increase in IL-6 level in serum at 16.12 ug, ip in liposome formulation measured after 2 hrs by ELISA relative to RC529-NH2; assay type: functional; conditions: dose 16.12 µg
Mus musculus [14] = organism: Mus musculus; test: Activation of adaptive immune response in ovalbumin immunized mouse model assessed as fold increase in IgG titers incubated for 1 hrs in presence of muramyl dipeptide and measured on day 42 relative to muramyl dipeptide; assay type: functional
T-cell [15] = test: Immunostimulatory activity in mouse spleen T-lymphocytes assessed as fold increase in proportion of TNF-alpha and IFN-gamma double-positive secreting CD4+ cells and measured on day 42 in the presence of muramyl dipeptide by staining based flow cytometric analysis relative to RC529; assay type: functional; conditions: time 42 day
Mus musculus [16] = test: Induction of innate immunity in BALB/c mouse assessed as fold increase in IL-6 level in serum at 5.36 ug, ip measured after 2 hrs in presence of muramyl dipeptide by ELISA relative to muramyl dipeptide; assay type: functional; conditions: dose 5.36 µg
T-cell [17] = test: Immunostimulatory activity in mouse spleen T-lymphocytes assessed as fold increase in proportion of TNF-alpha and IFN-gamma double-positive secreting CD4+ cells and measured on day 42 in the presence of muramyl dipeptide by staining based flow cytometric analysis relative to muramyl dipeptide; assay type: functional; conditions: time 42 day
Mus musculus [18] = organism: Mus musculus; test: Activation of adaptive immune response in ovalbumin immunized mouse model assessed as fold increase in IgG titers incubated for 1 hrs in presence of muramyl dipeptide and measured on day 42 relative to RC529; assay type: functional
Mus musculus [19] = test: Induction of innate immunity in BALB/c mouse assessed as fold increase in IL-6 level in serum at 16.12 ug, ip measured after 2 hrs in presence of muramyl dipeptide by ELISA relative to RC529; assay type: functional; conditions: dose 16.12 µg
BMDC [20] = test: Immunostimulatory activity in C57BL/6 mouse BMDC cells assessed as increase in IL-6 level at 9.3 uM incubated for 20 hrs in presence of GSK717 inhibitor by ELISA; assay type: functional, cell-based

Compound	Activity (THP-1)	Activity [1]	fold change (FC) [2]	Activity [3]	Activity [4]	Activity [5]	Activity (BMDC [6])	Activity [7]	Activity [9]	Activity [10]	Activity [11]	also measured
CCOC(=O)C1=CCCC[C@H]1S(=O)(=O)Nc1ccc(F)cc1Cl [RESATORVID]	Non-toxic											
CCCCCCCCCCCCCC(=O)O[C@H](CCCCCCCCCCC)CC(=O)NCCO[C@@H]1O[C@H](CN)[C@@H](OP(=O)(O)O)[C@H](OC(=O)C[C@@H](CCCCCCCCCCC)OC(=O)CCCCCCCCCCCCC)[C@H]1NC(=O)C[C@@H](CCCCCCCCCCC)OC(=O)CCCCCCCCCCCCC		14.4%	1.3	14.7%	22.8%	12.9%	inactive	15.3%	10.9%	16.2%	10.7%	fold change (FC) [8]: 1.1
CCCCCCCCCCCCCC(=O)O[C@H](CCCCCCCCCCC)CC(=O)NCCO[C@@H]1O[C@H](CO)[C@@H](OP(=O)(O)O)[C@H](OC(=O)C[C@@H](CCCCCCCCCCC)OC(=O)CCCCCCCCCCCCC)[C@H]1NC(=O)C[C@@H](CCCCCCCCCCC)OC(=O)CCCCCCCCCCCCC.CCN(CC)CC		14.6%	2.4	26.9%	24.1%	14%	inactive	21.6%	13.4%	28.7%	13.1%	fold change (FC) [12]: 1.1; fold change (FC) (Mus musculus [13]): 21; fold change (FC) (Mus musculus [14]): 1.9; fold change (FC) (T-cell [15]): 1.2; fold change (FC) (Mus musculus [16]): 17; fold change (FC) (T-cell [17]): 1.2; fold change (FC) (Mus musculus [18]): 1.1; fold change (FC) (Mus musculus [19]): 1.04
CC(=O)N[C@@H]1[C@@H](O[C@H](C)C(=O)N[C@@H](C)C(=O)N[C@H](CCC(=O)O)C(N)=O)[C@H](O)[C@@H](CO)O[C@H]1O [MURAMYLDIPEPTIDE]				12.2%		11.4%		13.6%			10.8%	Activity (BMDC [20]): inactive
CN(CCc1nc2ccccc2n1CC(=O)Nc1ccc2c(c1)CCC2)C(=O)c1ccccc1	Non-toxic											
